For ten molecules, Ki, melting point and agonism/antagonism character results are on record in patent US8642657B2 (Gruenenthal GmbH, priority 2003, dated 2014).

For data set [1], the target named is T1, rat VR1 (Rattus norvegicus, UniProt O35433).
T1 construct: expressed in transfected cells
Briefly: [3H]resiniferatoxin (RTX) competition binding assay, VR1-transfected CHO cells. The settings on record: for Ki: competition with [3H]RTX, rat VR1 in CHO cells, read-out: Ki (nM) Binding Affinity. The gist of the method:
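Competition with [3H]RTX (50-100 pM) ran 60 min at 37° C using whole VR1-induced CHO cells in BSA-containing DPBS, nonspecific defined by 100 nM cold RTX. After centrifugation, pellet radioactivity counted by scintillation; Hill fits gave Ki and cooperativity.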

Data set [2] concerns the target T1, rat VR1. Briefly: 45Ca2+-uptake assay in CHO/VR1 cells, antagonism of capsaicin-stimulated uptake. The format is cell-based. As to conditions: 45Ca2+ uptake stimulated by 50 nM capsaicin.
In data set [3] the target is T1, rat VR1. As to conditions: rat VR1 expressed in CHO cells; cited from earlier work.

pKi: −log10 of the molar value.

T1 sequence (O35433 whole entry): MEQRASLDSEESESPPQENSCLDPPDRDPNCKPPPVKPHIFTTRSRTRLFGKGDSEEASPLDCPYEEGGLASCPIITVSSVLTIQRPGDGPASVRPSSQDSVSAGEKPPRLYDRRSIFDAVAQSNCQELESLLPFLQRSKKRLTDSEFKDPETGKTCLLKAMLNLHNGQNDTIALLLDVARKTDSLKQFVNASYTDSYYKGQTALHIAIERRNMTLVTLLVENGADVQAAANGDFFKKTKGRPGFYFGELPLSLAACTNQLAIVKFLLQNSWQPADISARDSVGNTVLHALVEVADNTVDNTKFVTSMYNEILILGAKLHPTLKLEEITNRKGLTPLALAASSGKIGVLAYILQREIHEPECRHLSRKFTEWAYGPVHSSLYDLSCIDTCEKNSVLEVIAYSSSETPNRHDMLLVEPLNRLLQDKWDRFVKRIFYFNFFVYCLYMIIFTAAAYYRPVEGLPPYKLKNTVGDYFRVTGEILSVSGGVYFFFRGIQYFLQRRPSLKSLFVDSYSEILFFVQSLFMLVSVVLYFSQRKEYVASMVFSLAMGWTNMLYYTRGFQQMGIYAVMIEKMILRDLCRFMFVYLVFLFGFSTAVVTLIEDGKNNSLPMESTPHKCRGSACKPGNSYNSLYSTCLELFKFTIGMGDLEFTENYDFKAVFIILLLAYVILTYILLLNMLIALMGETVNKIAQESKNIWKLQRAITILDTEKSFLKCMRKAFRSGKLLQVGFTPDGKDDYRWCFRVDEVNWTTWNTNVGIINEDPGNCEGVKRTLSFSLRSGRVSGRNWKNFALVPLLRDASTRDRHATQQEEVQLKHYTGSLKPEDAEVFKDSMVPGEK

For the molecule `CC(C)(C)c1ccc(CNC(=S)NC2(c3ccc(NS(C)(=O)=O)cc3)CC2)cc1` [22-7, N-(4-t-Butylbenzyl)-N′-{1-[4-(methylsulfonylamino)phenyl]cyclopropyl}thiourea], the melting point lay in the range of 110 to 113 °C. The Ki on rat VR1 [1] was determined as 171 nM. In addition, the Ki on rat VR1 [2] is 60.3 nM.
`COc1cc(C2(NC(=S)NCc3ccc(C(C)(C)C)cc3)CC2)ccc1NS(C)(=O)=O` [22-9, N-(4-t-Butylbenzyl)-N′-{1-[3-methoxy-4-(methylsulfonylamino)phenyl]cyclopropyl}thiourea]: the melting point lay within 100 to 103 °C. The inhibition constant (Ki) at rat VR1 [1] was found to be 372 nM. The molecule also showed an inhibitory constant (Ki) at rat VR1 [2] of 243 nM.
Molecule `CC(NC(=O)NCc1ccc(C(C)(C)C)cc1)c1ccc(NS(C)(=O)=O)cc1` (stereo not shown) [23-1, N-(4-t-Butylbenzyl)-N′-{1-[4-(methylsulfonylamino)phenyl]ethyl}urea] showed a melting point of 95 to 98 °C. In addition, the pKi on rat VR1 [1] is 5.92. The inhibition constant Ki on rat VR1 [2] stood at 544 nM.
In the case of `CC(NC(=O)NCc1ccc(C(C)(C)C)cc1)c1ccc(NS(C)(=O)=O)c(F)c1` (stereo not shown) [23-2, N-(4-t-Butylbenzyl)-N′-{1-[3-fluoro-4-(methylsulfonylamino)phenyl]ethyl}urea], the melting point fell in the range of 152 to 154 °C. For the same molecule, the negative-log Ki (pKi) at rat VR1 [1] is 6.35. In addition, the Ki on rat VR1 [2] amounted to 298 nM.
As for `CC(NC(=O)Cc1ccc(C(C)(C)C)cc1)c1ccc(NS(C)(=O)=O)c(F)c1` (stereo not shown) [24-1, N-{1-[3-Fluoro-4-(methylsulfonylamino)phenyl]ethyl}-3-(4-tert-butylphenyl)acetamide], the melting point was in the range of 134 to 136 °C. Also, the Ki on rat VR1 [1] was found to be 2130 nM. For the same molecule, the affinity on rat VR1 [2] corresponds to a Ki of 2220 nM.
For the molecule `CC(NC(=O)CCc1ccc(C(C)(C)C)cc1)c1ccc(NS(C)(=O)=O)c(F)c1` (stereo not shown) [24-2, N-{1-[3-Fluoro-4-(methylsulfonylamino)phenyl]ethyl}-3-(4-tert-butylphenyl)propanamide], the melting point was 152 to 154 °C. On rat VR1 [1], the inhibition constant (Ki) came to 376 nM. The molecule further came in with a Ki on rat VR1 [2] of 103 nM.
As to `Cc1ccc(C=CC(=O)NC(C)c2ccc(NS(C)(=O)=O)c(F)c2)cc1C` (stereo not shown) [24-5, N-{1-[3-Fluoro-4-(methylsulfonylamino)phenyl]ethyl}-3-(3,4-dimethylphenyl)-2-propenamide], the melting point lay in the range of 212 to 213 °C. At rat VR1 [1], this molecule showed a negative-log Ki (pKi) of 5.60. The same molecule showed a Ki at rat VR1 [2] of 1350 nM.
In the case of `CC(NC(=O)C=Cc1ccc(Cl)cc1)c1ccc(NS(C)(=O)=O)c(F)c1` (stereo not shown) [24-7, N-{1-[3-Fluoro-4-(methylsulfonylamino)phenyl]ethyl}-3-(4-chlorophenyl)-2-propenamide], the melting point lay in the range of 219 to 221 °C. At rat VR1 [1], this molecule had a pKi of 6.11. In addition, on rat VR1 [2], the Ki amounted to 938 nM.
As to `Cc1ccc(C(C)CC(=O)NC(C)c2ccc(NS(C)(=O)=O)c(F)c2)cc1C` (stereo not shown) [24-8, N-{1-[3-Fluoro-4-(methylsulfonylamino)phenyl]ethyl}-3-(3,4-dimethylphenyl)butanamide], the melting point lay in the range of 152 to 154 °C. Besides, the negative-log Ki (pKi) at rat VR1 [1] was 5.45. The molecule further returned an inhibition constant Ki on rat VR1 [2] of 988 nM.
With `Cc1ccc(CC(CNC(=S)NCc2ccc(NS(C)(=O)=O)cc2)COC(=O)C(C)(C)C)cc1C` (stereo not shown) [Compound 1, N-[2-(3,4-dimethylbenzyl)-3-pivaloyloxypropyl]-N′-[4-(methylsulfonylamino)benzyl]thiourea], the agonism/antagonism character result at rat VR1 [3] was “partial agonism”.

A word on the Ki: it is the dissociation constant of the complex between target and ligand, obtained from inhibition or displacement. As a reminder, the melting point is the temperature of the solid-liquid transition. The pKi is −log10 of the Ki, conventionally taken in molar units.
